In BindingDB's records for doi:10.1002/cbic.200500168 (University of Leipzig, 2005):
pIC50: −log10 of the molar value.

These compounds were tested against T1, Kinesin-like protein KIF11 (Homo sapiens, UniProt P52732) (assay: Malachite Green Assay). Settings: pH 6.8; 25 °C.
T1 sequence (P52732 whole entry): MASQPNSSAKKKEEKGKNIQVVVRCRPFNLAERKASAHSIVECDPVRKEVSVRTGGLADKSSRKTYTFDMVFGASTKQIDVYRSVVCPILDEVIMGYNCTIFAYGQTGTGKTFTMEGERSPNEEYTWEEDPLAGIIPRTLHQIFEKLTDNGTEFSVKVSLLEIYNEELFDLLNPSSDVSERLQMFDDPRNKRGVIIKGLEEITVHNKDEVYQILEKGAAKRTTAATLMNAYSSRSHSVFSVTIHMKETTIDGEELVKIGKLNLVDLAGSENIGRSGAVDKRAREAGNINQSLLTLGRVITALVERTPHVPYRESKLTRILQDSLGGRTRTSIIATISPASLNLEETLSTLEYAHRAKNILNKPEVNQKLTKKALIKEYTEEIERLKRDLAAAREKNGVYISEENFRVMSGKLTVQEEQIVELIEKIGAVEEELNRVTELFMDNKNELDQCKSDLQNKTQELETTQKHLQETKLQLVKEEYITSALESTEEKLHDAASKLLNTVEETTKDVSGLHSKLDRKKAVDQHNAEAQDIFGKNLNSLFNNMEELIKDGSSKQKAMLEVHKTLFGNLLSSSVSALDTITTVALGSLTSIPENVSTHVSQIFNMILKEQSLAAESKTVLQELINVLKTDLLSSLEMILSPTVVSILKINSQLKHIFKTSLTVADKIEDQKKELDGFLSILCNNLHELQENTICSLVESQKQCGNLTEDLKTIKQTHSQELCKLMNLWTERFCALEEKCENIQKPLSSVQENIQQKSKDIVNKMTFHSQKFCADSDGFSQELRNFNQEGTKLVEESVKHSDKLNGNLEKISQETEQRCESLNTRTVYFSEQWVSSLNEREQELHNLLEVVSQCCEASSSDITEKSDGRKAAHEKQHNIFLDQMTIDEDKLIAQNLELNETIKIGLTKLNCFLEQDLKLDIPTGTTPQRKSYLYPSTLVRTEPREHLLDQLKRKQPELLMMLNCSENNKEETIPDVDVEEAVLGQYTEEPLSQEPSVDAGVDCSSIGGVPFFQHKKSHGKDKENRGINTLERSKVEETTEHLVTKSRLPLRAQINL
Protocol: The ATPase activity of the Eg5 motor domain was measured by using the malachite green assay.

pIC50	Structure (SMILES)
4.68	CCOC(=O)C1C(C)=NC(=S)N[C@H]1c1cccc(O)c1 (stereo not given in full) [Monastrol]
5.12	Oc1cccc(C2NC(=S)Nc3ccccc32)c1 (stereo not given) [VS-12]
5.24	Oc1cccc(C2NC(=S)Nc3ccc(Br)cc32)c1 (stereo not given) [VS-17]
5.24	Oc1cccc(C2NC(=S)Nc3ccc(Cl)cc32)c1 (stereo not given) [VS-42]
5.74	Oc1cccc(C2NC(=S)Nc3cc(F)ccc32)c1 (stereo not given) [VS-54]
5.09	Oc1cccc(C2NC(=S)Nc3ccc(F)cc32)c1 (stereo not given) [VS-77]
5.93	Oc1cccc(C2NC(=S)Nc3cccc(F)c32)c1 (stereo not given) [VS-83]
5.56	Oc1cccc(C2NC(=S)Nc3cc(F)c(F)cc32)c1 (stereo not given) [VS-87]
5.12	Cc1ccc2c(c1)NC(=S)NC2c1cccc(O)c1 (stereo not given) [VS-91]
5.56	Cc1ccc2c(c1)C(c1cccc(O)c1)NC(=S)N2 (stereo not given) [VS-94]
